Entries after “also recorded” stand apart in the source; their conditions may differ. Read-outs that look alike come from different tables or passages of the source.
Tests used:
[1] = test system: HepG2 cells (hepatocellular carcinoma); conditions: compound 0.5 ∝g/ml; WST-1
[2] = test system: cancer cell lines (HepG2, Hep3B, HeLa, HK1, C666-1); assay: cells; format: cell-based, human; conditions: for anti-proliferative (anticancer) activity, in words: 48 hrs
Method: (§1) For testing the anti-proliferation activity of the compounds in human cell lines and calculation of IC50, cancer cells including HepG2, HeLa and Hep3B (4×10^5 cells/well) and normal L-02 cells (5×10^5 cells/well) were respectively seeded in 96-well plates in 100 μl of culture medium and incubated for about 12 hrs at 37° C. The cells were treated with two-fold serial dilutions of the drugs for 48 hrs. Medium was removed and 100 μl of culture medium containing 1 μM WST-1 (water soluble tetrazolium-1) were added to each well. The cells were incubated for 2 hrs, and absorbance at 405 nm (reference at 630 nm) was then measured. To construct the standard curve of the relationship between cell number and absorbance at OD405, serial dilutions of cells with known cell numbers were seeded and incubated for six hrs before being measured by the WST-1 assay. The cell viability was expressed as the ratio of the number of live cells treated with a candidate compound versus that of the DMSO-treated cells.
(§2) To further test 17beta-Deacetyltanghinin and to determine the IC50 values, besides L-02 and HepG2, Hep3B (another liver cancer cell line which is p53-negative), HeLa (cervical cancer cell line), HK1 and C666-1 (nasopharyngeal carcinoma) cells and a hTert-immortalized normal nasopharyngeal cell line (NP460) were treated by 17beta-Deacetyltanghinin for 48 hrs, and the relative cell vabilities were determined by WST-1 assay (FIG. 2B, C).

[3] = test system: L-02 cells (normal human liver cells); assay: in vitro; conditions: compound 0.5 ∝g/ml; WST-1
Method: as §1
(§3) A pair of human cell lines, L-02 (normal liver cells) and HepG2 (a liver cancer cell line) was treated with 17beta-Deacetyltanghinin for 48 hrs. […] In FIG. 2B-H, quantification of viable cell numbers was carried out using WST-1 (Water-soluble tetrazolium-1) assay.
as §2

[4] = in vitro; conditions: human
Method: as §1, §3, §2

[5] = test system: cancer cells (HeLa, HepG2); assay: Flow cytometry / Annexin V staining (cell cycle, apoptosis) in cancer cells; format: cell-based, human; conditions: cancer cells
Method: Both floating and attached cells were collected and washed once with PBS. Cells were fixed in 70% ethanol for 1 hr to overnight at −20° C., washed thoroughly with PBS, and then stained in 50 μg/ml RNase A, 0.1% Triton X-100, 0.1 mM EDTA (pH 7.4), and 50 μg/ml propidium iodide for 30 min at 4° C. Samples were analyzed with the FACSort instrument (Becton Dickinson).
Moreover, inhibition of DNA replication and subsequent induction of apoptosis by 17beta-Deacetyltanghinin could be shown by flow cytometry. In FIG. 7. Hela cells were blocked at M phase by Nocodazole (Noc.; FIG. 7A), the G1/S transition by mimosine (MMS; FIG. 7B), or at early S phase by Hydroxyurea (HU; FIG. 7C) and then released into fresh medium in the presence of 17beta-Deacetyltanghinin (DAT). The cells at different time points after release were analyzed by follow cytometry. Ayn. means asynchronous cells. Untreated cells and cells treated with the solvent DMSO could complete M, G1 and S phases after release (FIG. 7A). […] Similarly, cells released from the Mimosine (MMS) arrest (at the G1/S transition; FIG. 7B) or Hydroxyurea (HU) arrest (in early S phase; FIG. 7C) could not finish S phase in the presence of 17beta-Deacetyltanghinin.
In FIG. 8A, flow cytometry was performed to analyze the DNA contents in HepG2 and L-02 cells treated with 17beta-Deacetyltanghinin at various concentrations for 24 hrs. In FIG. 8B, Hela cells were treated with 17beta-Deacetyltanghinin for 24 hrs and labeled with Annexin V-Cy3 (Arm. Cy3) for 20 min. Mitoxantrone (MTX), a clinical anticancer drug that can induce apoptosis in cancer cells, was used as a positive control.

[6] = molecular target: T1, hMcm2 and hMcm6 (Homo sapiens, UniProt P49736+Q14566); assay: Immunostaining / GFP fluorescence microscopy of MCM nuclear localization in HeLa cells; format: cell-based; conditions: 24 hrs
T1 construct: the endogenous hMcm2 and hMcm6 were detected by specific antibodies against these proteins; endogenous in cells; host or cells: HeLa
Method: To study the effect of the anticancer compounds on the interaction between hMcm2 and hMcm6 in the cells, immunostaining was performed to detect the sub-cellular localization of the proteins. HeLa cells grown on cover slips (coated with poly-D-lysine) with or without drug treatment were fixed with 4% PFA in PBS at room temperature for 20 min. After permeabilization with 0.1% Triton X-100 and 1% BSA in PBS for 20 min, cells were blocked with 1% BSA and then incubated with rabbit anti-hMcm6 (Santa Cruz; 1:500) and mouse anti-hMcm2 (Becton Dickinson; 1:500) primary antibodies at room temperature for 1 hr. Cells were then incubated with Alexa Fluor 488-conjugated donkey […] antibody and Alexa Fluor 594-conjugated donkey anti-mouse antibody (Invitrogen; 1:500) at room temperature for 1 hr. Three washes with PBS were performed after each round of antibody incubation. Cells were then incubated with Hochest 33852 (Sigma Chemical Company; 1 μg/ml) at room temperature for 15 min for nuclear staining and washed with PBS three times again. At last, cells were mounted and observed under the fluorescence microscope (Nikon TE2000E).
Because pair-wise interactions among the MCM subunits are required for the MCM heterohexameric ring structure, which is essential for their import into the nucleus, disruption of the interaction between hMcm2 and hMcm6 should destroy the hexamer and result in failure of nuclear localization of MCM proteins. To test this, we employed both indirect fluorescence microscopy (immunostaining) using antibodies against the endogenous MCM proteins and direct fluorescence microscopy after transfection with plasmids to express hMcm2-GFP and hMcm6-GFP in the cells.
In immunostaining, HeLa cells were treated by 17beta-Deacetyltanghinin for 24 hrs, and the endogenous hMcm2 and hMcm6 were detected by specific antibodies against these proteins. […] In direct fluorescence microscopy, HeLa cells expressing hMcm2-GFP and hMcm6-GFP were treated with 17beta-Deacetyltanghinin for 36 hrs starting at 4 hrs post-transfection with the plasmids expressing hMcm2-GFP and hMcm6-GFP.

[7] = molecular target: T2, hMcm2-hMcm6 interaction (MCM complex) (Homo sapiens, UniProt P49736+Q14566); assay: Co-immunoprecipitation of MCM subunits in HeLa cell extracts; format: cell-based; conditions: asynchronous HeLa cells, whole cell extracts
T2 construct: endogenous in cells; host or cells: HeLa
Method: To test if 17beta-Deacetyltanghinin targets hMcm2 and hMcm6 proteins in human cells, possible co-immunoprecipitation (co-IP) of the two proteins was tested in human cell extracts from cells treated with 17beta-Deacetyltanghinin. In FIG. 3, asynchronous HeLa cells were treated with DMSO or 17beta-Deacetyltanghinin (DAT) (FIG. 3A), or with DMSO, 17beta-Neriifolin (NRF) or 17beta-Deacetyltanghinin diol (Diol) (FIG. 3B), and whole cell extracts were prepared and further incubated with the compound before being used for co-IP in the presence of the compound. The immunoprecipitates were then immunoblotted with anti-hMcm 6, anti-hMcm2, anti-hMcm4 and anti-hMcm7 antibodies.

[8] = test system: HeLa cells xenograft tumors; assay: In vivo anticancer activity, nude mice xenograft model; conditions: 10 mg/kg per injection, first 10 days
Method: In vivo anticancer activity tests were carried out in the nude mice xenograft model by inoculating nude mice with HeLa cells in both the left and right flanks. After random grouping, nude mice were treated intraperitoneally with 17beta-Deacetyltanghinin or the solvent (30% of propylene glycol in PBS). In the first test, 3 days after tumor inoculation when small tumors started to form, two groups of nude mice were treated on days 1-3 and 6-10 with 3.5 and 7.0 mg-drug/kg-body weight of 17beta-Deacetyltanghinin respectively, and another group of control mice were treated with the same volume of the solvent (FIG. 10A). In FIG. 10A, the tumor volume data represented by the small-size data point symbol linked with thin lines were obtained on the days when both measurement of tumor size and drug injections were performed, and the tumor volume data represented by the large-size data point symbol linked with thick lines were obtained on the days without drug injection. Each tumor size was average of ten tumors in five mice in each group.
(§4) A further set of animal experiments was then conducted with a longer period of time, in which fifteen drug injections at 5.0 mg/kg were performed one week after tumor inoculation when the tumor size reached 0.05-0.1 cm^3. In FIG. 10B, drug injections and tumor size measurements were performed on the days represented by the data points, and the photographs in FIG. 10C were taken on day 20.

[9] = In vivo toxicity assessment in nude mice; conditions: 10 mg/kg per injection, tumor-bearing nude mice
Method: as §4
In FIG. 11, S refers to solvent-treated mice without tumor inoculation; S+T represents solvent-treated mice with tumor inoculation; DAT refers to 17beta-Deacetyltanghinin-treated mice without tumor inoculation; DAT+T represents 17beta-Deacetyltanghinin-treated mice with tumor inoculation; and P+T refers to Paelitaxel-treated mice with tumor inoculation. Three out of the five mice with intermediate tumor size in each group were selected for physiological parameters examination. The tumors (T) and internal organs including liver (L), heart (H) and kidney (K) were dissected from each mouse.
Furthermore, blood from each mouse was also collected for the tests of the ALT (alanine aminotransferase) and LDH (Lactate dehydrogenase) activities. […] The results of both tests were represented as the values of differently treated mice relative to the untreated ones.

T1 sequence (P49736 2-904): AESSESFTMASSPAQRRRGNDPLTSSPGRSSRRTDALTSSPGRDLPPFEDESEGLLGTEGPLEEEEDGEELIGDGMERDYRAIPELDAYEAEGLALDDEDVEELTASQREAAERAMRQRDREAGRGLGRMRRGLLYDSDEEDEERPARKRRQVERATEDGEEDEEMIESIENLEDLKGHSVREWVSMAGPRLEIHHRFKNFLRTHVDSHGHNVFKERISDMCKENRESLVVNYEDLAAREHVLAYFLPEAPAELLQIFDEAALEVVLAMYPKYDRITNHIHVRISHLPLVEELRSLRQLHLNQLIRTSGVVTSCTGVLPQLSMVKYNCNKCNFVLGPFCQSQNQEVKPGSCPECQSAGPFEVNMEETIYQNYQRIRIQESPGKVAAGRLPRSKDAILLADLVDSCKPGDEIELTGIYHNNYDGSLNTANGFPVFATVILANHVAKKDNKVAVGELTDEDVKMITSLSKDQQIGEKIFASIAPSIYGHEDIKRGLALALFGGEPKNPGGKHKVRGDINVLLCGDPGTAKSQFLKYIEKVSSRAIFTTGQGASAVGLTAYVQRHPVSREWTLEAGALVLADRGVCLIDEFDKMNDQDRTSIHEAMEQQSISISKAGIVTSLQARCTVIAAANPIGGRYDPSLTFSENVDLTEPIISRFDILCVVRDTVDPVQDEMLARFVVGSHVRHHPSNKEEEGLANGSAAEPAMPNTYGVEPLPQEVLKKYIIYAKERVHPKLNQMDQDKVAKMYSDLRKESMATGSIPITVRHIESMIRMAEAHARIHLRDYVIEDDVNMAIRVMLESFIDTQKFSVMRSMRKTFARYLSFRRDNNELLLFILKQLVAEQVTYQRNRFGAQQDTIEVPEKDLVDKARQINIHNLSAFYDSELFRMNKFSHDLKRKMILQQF
T1 sequence (Q14566 whole entry): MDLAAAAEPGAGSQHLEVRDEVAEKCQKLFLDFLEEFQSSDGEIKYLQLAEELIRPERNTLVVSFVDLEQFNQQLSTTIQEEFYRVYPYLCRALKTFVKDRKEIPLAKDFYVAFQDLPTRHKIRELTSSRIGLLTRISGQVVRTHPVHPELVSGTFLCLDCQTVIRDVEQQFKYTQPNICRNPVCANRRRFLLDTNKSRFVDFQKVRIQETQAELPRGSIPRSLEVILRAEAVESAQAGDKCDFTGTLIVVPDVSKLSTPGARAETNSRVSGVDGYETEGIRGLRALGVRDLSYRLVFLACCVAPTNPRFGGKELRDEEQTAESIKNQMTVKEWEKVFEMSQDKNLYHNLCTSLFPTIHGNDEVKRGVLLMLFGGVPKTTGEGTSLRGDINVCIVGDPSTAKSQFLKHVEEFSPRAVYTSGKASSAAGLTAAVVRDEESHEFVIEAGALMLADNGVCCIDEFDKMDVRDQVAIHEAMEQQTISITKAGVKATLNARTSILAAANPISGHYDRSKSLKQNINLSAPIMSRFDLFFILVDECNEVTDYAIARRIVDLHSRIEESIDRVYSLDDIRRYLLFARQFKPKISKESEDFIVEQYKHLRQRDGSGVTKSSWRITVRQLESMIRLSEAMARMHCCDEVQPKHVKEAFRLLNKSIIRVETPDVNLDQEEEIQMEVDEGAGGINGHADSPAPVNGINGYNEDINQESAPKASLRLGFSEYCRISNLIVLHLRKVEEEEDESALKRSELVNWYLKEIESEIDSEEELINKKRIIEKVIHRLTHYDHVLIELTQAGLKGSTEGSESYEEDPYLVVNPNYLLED
T2 sequence (P49736 2-904 limits assumed): as the sequence (P49736 2-904) above
T2 sequence (Q14566 whole entry): as the sequence (Q14566 whole entry) above

Question: For `CO[C@H]1[C@H](O)[C@H](O[C@H]2CC[C@@]3(C)[C@@H](C2)C[C@@H]2O[C@]24[C@@H]3CC[C@]2(C)[C@H](C3=CC(=O)OC3)CC[C@]42O)O[C@@H](C)[C@@H]1O` [17alpha-Deacetyltanghinin, reference compound], which “HepG2 cell viability (%)” value [1] is on record?
Answer: The value was 97.2%.

Question: What about the “anti-proliferative (anticancer) activity, in words” value ([2]; WST-1 assay) of the same compound?
Answer: The value was “little anti-proliferative activity”.

Question: What about the “L-02 cell viability (%)” value [3] of the same compound?
Answer: The value was 100%.

Question: With `C[C@]12CC[C@H](O)C[C@H]1CC[C@@H]1[C@@H]2CC[C@]2(C)[C@@H](c3ccc(=O)oc3)C[C@H]3O[C@]132` [Resibufogenin] as the compound, how does the “HepG2 cell viability (%)” value [1] read?
Answer: Its value is 1.4%.

Question: What about the viability [4] of the same compound?
Answer: Its viability is 37.9%.

Question: Which results are given for 17beta-Deacetyltanghinin diol?
Answer: induction of apoptosis (sub-G1 population, flow cytometry) [5]: able to induce apoptosis of cancer cells; nuclear localization of endogenous hMcm2 and hMcm6 (immunostaining) [6]: weaker activity; disruption of hMcm2-hMcm6 interaction (co-IP) [7]: weaker activity; anti-proliferative (anticancer) activity, in words ([2]; WST-1 assay): lower anticancer activity than 17beta-Deacetyltanghinin

Question: What does the source list for `CO[C@H]1[C@H](O)[C@H](O[C@H]2CC[C@@]3(C)[C@H](CC[C@@H]4[C@@H]3CC[C@]3(C)[C@@H](C5=CC(=O)OC5)CC[C@]43O)C2)O[C@@H](C)[C@@H]1O` [17beta-Neriifolin]?
Answer: induction of apoptosis (sub-G1 population, flow cytometry) [5]: able to induce apoptosis of cancer cells; nuclear localization of endogenous hMcm2 and hMcm6 (immunostaining) [6]: as efficiently as 17beta-Deacetyltanghinin; disruption of hMcm2-hMcm6 interaction (co-IP) [7]: could also disrupt the hMcm2-hMcm6 interaction

Question: For `CO[C@H]1[C@H](O)[C@H](O[C@H]2CC[C@@]3(C)[C@H](CC[C@@H]4[C@@H]3CC[C@]3(C)[C@H](C5=CC(=O)OC5)CC[C@]43O)C2)O[C@@H](C)[C@@H]1O` [17alpha-Neriifolin, reference compound], which “HepG2 cell viability (%)” value [1] is on record?
Answer: Its value is 100%.

Question: What about the “anti-proliferative (anticancer) activity, in words” value ([2]; WST-1 assay) of the same compound?
Answer: Its value is “little anti-proliferative activity”.

Question: What about the “L-02 cell viability (%)” value [3] of the same compound?
Answer: Its value is 100%.

Question: What does the source list for `CC(=O)O[C@H]1C(=O)[C@@]2(C)[C@H]([C@H](OC(=O)c3ccccc3)[C@]3(O)C[C@H](OC(=O)[C@H](O)[C@@H](NC(=O)c4ccccc4)c4ccccc4)C(C)=C1C3(C)C)[C@]1(OC(C)=O)CO[C@@H]1C[C@@H]2O` [Paclitaxel, reference compound]?
Answer: antitumor activity compared with 17beta-Deacetyltanghinin, in words [8]: much less antitumor activities; selectivity between cancer and normal cells, in words [2]: did not show significant selectivity; also recorded: more toxic to normal liver cells than liver cancer cells; mortality from toxicity [9]: the mice died on day 10

Question: Which “HepG2 cell viability (%)” value [1] does the source give for `C[C@]12CC[C@H](O)C[C@H]1CC[C@@H]1[C@@H]2CC[C@]2(C)[C@@H](c3ccc(=O)oc3)CC[C@]12O` [Bufalin] here?
Answer: The value was 13.7%.

Question: What about the viability [4] of the same compound?
Answer: Its viability is 37.2%.

Question: Which “HepG2 cell viability (%)” value [1] does the source give for `CC(=O)O[C@H]1[C@H]2O[C@]23[C@@H]2CC[C@@H]4C[C@@H](O)CC[C@]4(C)[C@H]2CC[C@]3(C)[C@H]1c1ccc(=O)oc1` [Cinobufagin] here?
Answer: The value was 1.5%.

Question: And the viability [4]?
Answer: The viability was 39.7%.

Question: Which “selectivity between cancer and normal cells, in words” value ([2]; cancer vs normal cells, WST-1 assay) does the source give for `COc1cc([C@@H]2c3cc4c(cc3[C@@H](O[C@@H]3O[C@@H]5CO[C@@H](C)O[C@H]5[C@H](O)[C@H]3O)[C@H]3COC(=O)[C@H]23)OCO4)cc(OC)c1OP(=O)(O)O` [VP16, Etoposide phosphate] here?
Answer: The value was “did not show significant selectivity”.

Source: US11648258B2, “Method and compounds for inhibiting the MCM complex and their application in cancer treatment” (priority 2012, dated 2023)
